Converted amounts (≈) assume the structure as drawn. Read-outs that look alike come from different tables or passages of the source.
Legend:
Assay type in all cases: cell-based
Botrtyis cinerea (Bc) = experiment: In vitro pathogen growth inhibition assay, Bc; details: 48 h
Outline: (§1)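 Spores in 17% V8 liquid medium, or 1.5 mm Rs mycelial plugs in ¼ PDB, incubated with compound; final concentration checked by OD600 for precipitation. OD readings at 24 and 48 h, blank-subtracted, plus visual ratings; value is concentration giving ≥90% growth inhibition.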

[1] = test system: Collectotrichum graminicola (Cg); experiment: In vitro pathogen growth inhibition assay, Cg; details: 48 h
Outline: as §1

Diplodia maydis (Dm) = experiment: In vitro pathogen growth inhibition assay, Dm; details: Stenocarpella maydis, 48 h
Outline: (§2)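 Value reported is the compound concentration reaching ≥90% growth inhibition, from OD readings at 24 and 48 h after blank subtraction, confirmed visually. Inoculum was spores diluted in 17% V8 medium, except Rs, using 1.5 mm mycelial plugs in ¼ PDB; actual compound concentration corrected via OD600.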

[2] = test system: Fusarium moniliforme (Fm); experiment: In vitro pathogen growth inhibition assay, Fm; details: Fusarium verticillioides
Outline: as §1

[3] = test system: Fusarium virguliforme (Fv); experiment: In vitro pathogen growth inhibition assay, Fv
Outline: as §2

[4] = test system: Phytophthora capsici (Pc); experiment: In vitro pathogen growth inhibition assay, Pc; details: 48 h
Outline: as §2

Rhizoctonia solani (Rs) = experiment: In vitro pathogen growth inhibition assay, Rs (mycelial plugs); details: Rhizoctonia solani, 48 h
Outline: as §2

Septoria tritici (St) = experiment: In vitro pathogen growth inhibition assay, St; details: Zymoseptoria tritici, 48 h
Outline: as §1

[5] = concentration sufficient to ≥90% inhibition of growth, 48 hours vs 2% DMSO control, read-out: Compound Concentration (ppm) for ≥90% inhibition, Bc
[6] = concentration sufficient to ≥90% inhibition of growth, 48 hours vs 2% DMSO control, read-out: Compound Concentration (ppm) for ≥90% inhibition, Cg
[7] = concentration sufficient to ≥90% inhibition of growth, 48 hours vs 2% DMSO control, read-out: Compound Concentration (ppm) for ≥90% inhibition, Dm
[8] = concentration sufficient to ≥90% inhibition of growth, 48 hours vs 2% DMSO control, read-out: Compound Concentration (ppm) for ≥90% inhibition, Fm
[9] = concentration sufficient to ≥90% inhibition of growth, 48 hours vs 2% DMSO control, read-out: Compound Concentration (ppm) for ≥90% inhibition, Fv
[10] = concentration sufficient to ≥90% inhibition of growth, 48 hours vs 2% DMSO control, read-out: Compound Concentration (ppm) for ≥90% inhibition, Pc
[11] = concentration sufficient to ≥90% inhibition of growth, 48 hours vs 2% DMSO control, read-out: Compound Concentration (ppm) for ≥90% inhibition, Rs
[12] = concentration sufficient to ≥90% inhibition of growth, 48 hours vs 2% DMSO control, read-out: Compound Concentration (ppm) for ≥90% inhibition, St
[13] = ≥90% growth inhibition, 48 hours, vs 2% DMSO control, read-out: Compound Concentration (ppm) sufficient for ≥90% inhibition of Bc
[14] = ≥90% growth inhibition, 48 hours, vs 2% DMSO control, read-out: Compound Concentration (ppm) sufficient for ≥90% inhibition of Cg
[15] = ≥90% growth inhibition, 48 hours, vs 2% DMSO control, read-out: Compound Concentration (ppm) sufficient for ≥90% inhibition of Dm
[16] = ≥90% growth inhibition, 48 hours, vs 2% DMSO control, read-out: Compound Concentration (ppm) sufficient for ≥90% inhibition of Fm
[17] = ≥90% growth inhibition, 48 hours, vs 2% DMSO control, read-out: Compound Concentration (ppm) sufficient for ≥90% inhibition of Fv
[18] = ≥90% growth inhibition, 48 hours, vs 2% DMSO control, read-out: Compound Concentration (ppm) sufficient for ≥90% inhibition of Pc
[19] = ≥90% growth inhibition, mycelial plugs, 48 hours, vs 2% DMSO control, read-out: Compound Concentration (ppm) sufficient for ≥90% inhibition of Rs
[20] = ≥90% growth inhibition, 48 hours, vs 2% DMSO control, read-out: Compound Concentration (ppm) sufficient for ≥90% inhibition of St

Compound	IC90 (Botrtyis cinerea (Bc); [5])	IC90 [1, 6]	IC90 (Diplodia maydis (Dm); [7])	IC90 [2, 8]	IC90 [3, 9]	IC90 [4, 10]	IC90 (Rhizoctonia solani (Rs); [11])	IC90 (Septoria tritici (St); [12])	IC90 (Botrtyis cinerea (Bc); [13])	IC90 [1, 14]	IC90 (Diplodia maydis (Dm); [15])	IC90 [2, 16]	IC90 [3, 17]	IC90 [4, 18]	IC90 (Rhizoctonia solani (Rs); [19])	IC90 (Septoria tritici (St); [20])
COc1ccc(F)cc1[C@@H](O)Cn1c(=O)n([C@H](C)C(=O)N2CCCC2)c(=O)c2c(C)c(-n3nccn3)sc21 [Compound I-222]	–	–	–	–	–	–	–	–	2 µg/mL (≈ 3.69 µM)	2 µg/mL (≈ 3.69 µM)	10 µg/mL (≈ 18.4 µM)	0.4 µg/mL (≈ 0.737 µM)	0.4 µg/mL (≈ 0.737 µM)	> 50 µg/mL	0.4 µg/mL (≈ 0.737 µM)	50 µg/mL (≈ 92.2 µM)
CCOC(=O)c1sc2c(c1C)c(=O)n(C(C)(C)C(=O)N1CCCC1)c(=O)n2C[C@H](O)c1cc(F)ccc1OC [Compound I-224]	–	–	–	–	–	–	–	–	2 µg/mL (≈ 3.56 µM)	10 µg/mL (≈ 17.8 µM)	> 50 µg/mL	2 µg/mL (≈ 3.56 µM)	2 µg/mL (≈ 3.56 µM)	> 50 µg/mL	0.08 µg/mL (≈ 0.142 µM)	> 50 µg/mL
CCOC(=O)c1sc2c(c1C)c(=O)n([C@@H](C)C(=O)N1CCCC1)c(=O)n2C[C@H](OCCC#N)c1cc(F)ccc1OC [Compound I-225]	–	–	–	–	–	–	–	–	10 µg/mL (≈ 16.6 µM)	> 50 µg/mL	> 10 µg/mL	2 µg/mL (≈ 3.33 µM)	≥ 50 µg/mL	> 50 µg/mL	10 µg/mL (≈ 16.6 µM)	> 50 µg/mL
CCOC(=O)c1sc2c(c1C)c(=O)n([C@H](C)C(=O)N1CCCC1)c(=O)n2C[C@H](OCCC#N)c1cc(F)ccc1OC [Compound I-226]	–	–	–	–	–	–	–	–	2 µg/mL (≈ 3.33 µM)	2 µg/mL (≈ 3.33 µM)	≥ 2 µg/mL	0.08 µg/mL (≈ 0.133 µM)	2 µg/mL (≈ 3.33 µM)	> 50 µg/mL	0.08 µg/mL (≈ 0.133 µM)	> 50 µg/mL

Continued, values first:

IC90 (Botrtyis cinerea (Bc); [5])	IC90 [1, 6]	IC90 (Diplodia maydis (Dm); [7])	IC90 [2, 8]	IC90 [3, 9]	IC90 [4, 10]	IC90 (Rhizoctonia solani (Rs); [11])	IC90 (Septoria tritici (St); [12])	IC90 (Botrtyis cinerea (Bc); [13])	IC90 [1, 14]	IC90 (Diplodia maydis (Dm); [15])	IC90 [2, 16]	IC90 [3, 17]	IC90 [4, 18]	IC90 (Rhizoctonia solani (Rs); [19])	IC90 (Septoria tritici (St); [20])	Compound
10 µg/mL (≈ 19.9 µM)	50 µg/mL (≈ 99.5 µM)	> 50 µg/mL	10 µg/mL (≈ 19.9 µM)	50 µg/mL (≈ 99.5 µM)	> 50 µg/mL	> 50 µg/mL	> 50 µg/mL	–	–	–	–	–	–	–	–	COc1ccc(F)cc1[C@@H](O)Cn1c(=O)n(C(C)(C)C(N)=O)c(=O)c2c(C)c(-n3nccn3)sc21 [Compound I-221]
50 µg/mL (≈ 91.5 µM)	> 50 µg/mL	> 50 µg/mL	10 µg/mL (≈ 18.3 µM)	> 50 µg/mL	> 50 µg/mL	0.4 µg/mL (≈ 0.732 µM)	> 50 µg/mL	–	–	–	–	–	–	–	–	CCOC(=O)c1sc2c(c1C)c(=O)n([C@@H](C)C(N)=O)c(=O)n2C[C@H](OCCC#N)c1cc(F)ccc1OC [Compound I-227]
10 µg/mL (≈ 18.3 µM)	> 50 µg/mL	> 50 µg/mL	10 µg/mL (≈ 18.3 µM)	> 50 µg/mL	> 50 µg/mL	2 µg/mL (≈ 3.66 µM)	> 50 µg/mL	–	–	–	–	–	–	–	–	CCOC(=O)c1sc2c(c1C)c(=O)n([C@H](C)C(N)=O)c(=O)n2C[C@H](OCCC#N)c1cc(F)ccc1OC [Compound I-228]
–	–	–	–	–	–	–	–	2 µg/mL (≈ 3.32 µM)	10 µg/mL (≈ 16.6 µM)	≥ 10 µg/mL	0.4 µg/mL (≈ 0.664 µM)	0.4 µg/mL (≈ 0.664 µM)	> 50 µg/mL	0.08 µg/mL (≈ 0.133 µM)	≥ 10 µg/mL	CCOC(=O)c1sc2c(c1C)c(=O)n([C@@H](C)C(=O)N(C)C(C)C)c(=O)n2C[C@H](OCCC#N)c1cc(F)ccc1OC [Compound I-230]
–	–	–	–	–	–	–	–	10 µg/mL (≈ 17.7 µM)	10 µg/mL (≈ 17.7 µM)	50 µg/mL (≈ 88.5 µM)	2 µg/mL (≈ 3.54 µM)	0.4 µg/mL (≈ 0.708 µM)	> 50 µg/mL	2 µg/mL (≈ 3.54 µM)	> 50 µg/mL	CCNC(=O)C(C)(C)n1c(=O)c2c(C)c(-n3cccn3)sc2n(C[C@H](OCCC#N)c2ccccc2OC)c1=O [Compound I-232]
–	–	–	–	–	–	–	–	2 µg/mL (≈ 3.43 µM)	2 µg/mL (≈ 3.43 µM)	≥ 2 µg/mL	0.4 µg/mL (≈ 0.687 µM)	2 µg/mL (≈ 3.43 µM)	> 50 µg/mL	2 µg/mL (≈ 3.43 µM)	> 50 µg/mL	CCNC(=O)C(C)(C)n1c(=O)c2c(C)c(-n3cccn3)sc2n(C[C@H](OCCC#N)c2cc(F)ccc2OC)c1=O [Compound I-235]

— patent US10941157B2, “Pesticidal compositions and uses thereof” (Gilead Apollo, LLC, priority 2015, dated 2021)
